Broadly, the EC50 is the midpoint of the concentration-response curve.

In data set [1] the test system is HBV AD38 viral particles in HepG2 cell line overexpressing NTCP. Description: HBV DNA Quantification Assay. As to conditions: Hepatitis B virus, HepG2, 120 h, HBV-infected HepG2-NTCP cells, 5 days incubation, HBV DNA in culture supernatant (QuantiGene 2.0); geometric mean of a minimum of four determinations. The format is cell-based. The method, boiled down:
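NTCP-overexpressing HepG2 cells infected with AD38 virus at 4000 genome equivalents/cell for 4 days, then reseeded with serially diluted compound in DMEM, 2% FBS, 1% DMSO for 5 days.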

Data set [2] can be described thus: Hepatic Stability Assay (in vitro half-life method). The format is in vitro ADME. The arrangement: dose or concentration left out as unconfirmed. The note with it: pooled cryopreserved hepatocytes, 37° C., 1×10^6 cells/mL, 0-6 hours, LC-MS/MS, 39.5 hours is the maximum detectable half life, read-out: t½ (converted). The method, boiled down: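 Pooled cryopreserved hepatocytes (1×10^6 cells/mL) incubated with compound at […] test concentration, 37° C.; samples at 0, 1, 3 and 6 h quantified by LC-MS/MS. Half-life from rate of compound disappearance, scaled to predicted hepatic clearance via well-stirred model.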

For `CNC(=O)[C@@](C)(NC(=O)C(=O)c1c(C)c(C(=O)Nc2ccc(F)c(F)c2)n2c1CCC2)C(F)(F)F` [Example 137, (R)—N-(3,4-difluorophenyl)-6-methyl-7-(2-oxo-2-((1,1,1-trifluoro-2-methyl-3-(methylamino)-3-oxopropan-2-yl)amino)acetyl)-2,3-dihydro-1H-pyrrolizine-5-carboxamide], a half-maximal response in data set [1] (EC50) required 158 nM. Besides, the half-life in data set [2] was 7.4 h.
The like results for `Cc1c(C(=O)C(=O)NC2(c3c[nH]nn3)CC(F)(F)C2)c2n(c1C(=O)Nc1ccc(F)c(Cl)c1)CCC2` [Example 29, N-(3-chloro-4-fluorophenyl)-7-(2-((3,3-difluoro-1-(1H-1,2,3-triazol-4-yl)cyclobutyl)amino)-2-oxoacetyl)-6-methyl-2,3-dihydro-1H-pyrrolizine-5-carboxamide] were, in that order, 3.1 nM and 16.1 h.
The like results for `Cc1c(C(=O)C(=O)NC2(c3c[nH]nn3)CC(F)(F)C2)c2n(c1C(=O)Nc1cc(F)c(F)c(F)c1)[C@@H]1C[C@@H]1C2` [Example 40, (1aR,6aR)-5-(2-((3,3-difluoro-1-(1H-1,2,3-triazol-4-yl)cyclobutyl)amino)-2-oxoacetyl)-4-methyl-N-(3,4,5-trifluorophenyl)-1,1a,6,6a-tetrahydrocyclopropa[b]pyrrolizine-3-carboxamide] were, in that order, 1.9 nM and 5.2 h.
`Cc1c(C(=O)C(=O)NC2(c3c[nH]nn3)CC2)c2n(c1C(=O)Nc1cc(F)c(F)cc1F)CCC2` [Example 90, 7-(2-((1-(1H-1,2,3-triazol-4-yl)cyclopropyl)amino)-2-oxoacetyl)-6-methyl-N-(2,4,5-trifluorophenyl)-2,3-dihydro-1H-pyrrolizine-5-carboxamide] showed an EC50 in data set [1] of 183 nM. Also, in data set [2], the half-life was 31.4 h.
The like results for `Cc1c(C(=O)C(=O)NC2(c3cnn[nH]3)CC(F)(F)C2)c2n(c1C(=O)Nc1ccc(F)cc1)[C@@H]1C[C@@H]1C2` [Example 100, (1aR,6aR)-5-(2-((3,3-difluoro-1-(1H-1,2,3-triazol-5-yl)cyclobutyl)amino)-2-oxoacetyl)-N-(4-fluorophenyl)-4-methyl-1,1a,6,6a-tetrahydrocyclopropa[b]pyrrolizine-3-carboxamide] were, in that order, 3.7 nM and 3.1 h.
The like results for `Cc1c(C(=O)C(=O)NC2(c3c[nH]nn3)CC2)c2n(c1C(=O)Nc1ccc(F)c(Cl)c1)[C@@H]1C[C@@H]1C2` [Example 52, (1aR,6aR)-5-(2-((1-(1H-1,2,3-triazol-4-yl)cyclopropyl)amino)-2-oxoacetyl)-N-(3-chloro-4-fluorophenyl)-4-methyl-1,1a,6,6a-tetrahydrocyclopropa[b]pyrrolizine-3-carboxamide] were, in that order, 7.7 nM and 4.2 h.
The like results for `Cc1c(C(=O)C(=O)N[C@](C)(CO)C(F)(F)F)c2n(c1C(=O)Nc1ccc(F)c(Cl)c1)CCC2` [Example 132, (R)—N-(3-Chloro-4-fluorophenyl)-6-methyl-7-(2-oxo-2-((1,1,1-trifluoro-3-hydroxy-2-methylpropan-2-yl)amino)acetyl)-2,3-dihydro-1H-pyrrolizine-5-carboxamide] were, in that order, 8.3 nM and 7.7 h.
`CNC(=O)C1(NC(=O)C(=O)c2c(C)c(C(=O)Nc3ccc(F)c(Cl)c3)n3c2[C@H]2C[C@H]2C3)CC(F)(F)C1` [Example 34, (1aR,6bS)—N-(3-chloro-4-fluorophenyl)-6-(2-((3,3-difluoro-1-(methylcarbamoyl)cyclobutyl)amino)-2-oxoacetyl)-5-methyl-1,1a,2,6b-tetrahydrocyclopropa[a]pyrrolizine-4-carboxamide] came in with an EC50 in data set [1] of 202 nM. In addition, the half-life in data set [2] is 18.1 h.

The values above are taken from US10328053B2 (Gilead Sciences, Inc., priority 2016, dated 2019).
